{"source": "patent US11963966B2", "about": "“Compositions and methods for treating ovarian tumors” (Dana-Farber Cancer Institute, Inc., priority 2017, dated 2024)", "key": {"OVACR8": {"system": "OVACR8", "assay": "Screen of 14 JAK/STAT pathway inhibitors, CellTiterGlo viability, 2D and 3D cultures", "type": "cell-based", "details": "OVACR8, 1 μM, 2D and 3D culture", "protocol": "(§1) FIG. 6A-FIG. 6G are a series of graphs and images depicting the impact of JAK/STAT-inhibition on spheroid formation, invasion and killing ex vivo and in vitro. FIG. 6A a histogram (FIG. 11B), showing drug screening with 14 compounds (at 1 μM) inhibiting the JAK/STAT pathway in OVACR4. Relative viability compared to DMSO control measured by CTG. […] The same library was screened in 2D-cultures of OVACR4 (FIG. 11A), and 2D-cultures of OVACR8 (FIG. 11C) and 3D-cultures of OVACR8 (FIG. 11D). FIG. 6B is a series of plots showing drug sensitivity testing using the GILA assay in platinum-resistant ex vivo spheroid cultures of patients DF3291 and DF3266, The X-axis indicates the log μM concentration of drugs indicated in the legend, Y-axis indicates the percentage of luminescence signal as indicator for viability relatively to DMSO treated cells. In both patients, half maximal effective concentration (EC50) were ˜100 nM and ˜10 nM, respectively, while other drugs routinely used for the treatment of (platinum-resistant) ovarian cancer had EC50>10 μM. […] 20 spheroids clusters were analyzed for each iteration. […]\nFIG. 11A-FIG. 11E are a series of histograms of OVACR4 and OVACR8 ovarian cancer cell lines grown in 2D and 3D cultures and treated with 14 JAK/STAT pathway inhibitors at 1 μM. Vability of the cells was determined using the CellTiterGlo assay. […]"}, "[1]": {"system": "platinum-resistant ex vivo spheroid cultures of patients DF3266, DF3288, DF3291", "assay": "Drug sensitivity testing with the growth in low attachment (GILA) assay", "type": "cell-based", "protocol": "(§2) FIG. 6A-FIG. 6G are a series of graphs and images depicting the impact of JAK/STAT-inhibition on spheroid formation, invasion and killing ex vivo and in vitro. FIG. 6A a histogram (FIG. 11B), showing drug screening with 14 compounds (at 1 μM) inhibiting the JAK/STAT pathway in OVACR4. Relative viability compared to DMSO control measured by CTG. […] The same library was screened in 2D-cultures of OVACR4 (FIG. 11A), and 2D-cultures of OVACR8 (FIG. 11C) and 3D-cultures of OVACR8 (FIG. 11D). FIG. 6B is a series of plots showing drug sensitivity testing using the GILA assay in platinum-resistant ex vivo spheroid cultures of patients DF3291 and DF3266, The X-axis indicates the log μM concentration of drugs indicated in the legend, Y-axis indicates the percentage of luminescence signal as indicator for viability relatively to DMSO treated cells. In both patients, half maximal effective concentration (EC50) were ˜100 nM and ˜10 nM, respectively, while other drugs routinely used for the treatment of (platinum-resistant) ovarian cancer had EC50>10 μM. FIG. 6C is a series of images of microscopic analysis of spheroids with different drug treatments to highlight the morphologic changes during therapy with drugs listed. Inhibition of JAK/STAT pathway disrupts ex vivo spheroid cultures. […] The X-axis indicates established ovarian cancer cell line ID. Y-axis indicates the relative number of formed spheroids when treated with either JSI-124 or carboplatin compared to untreated parental controls. Error bars indicate the standard deviation from the mean number of spheroids. […] JAK/STAT inhibition prevents spheroid formation. […] The Y-axis indicates the clearance ability (using arbitrary units). 20 spheroids clusters were analyzed for each iteration. Data is shown as mean (horizontal bar), interquartile range (box), and minimum and maximum (whiskers). Statistical analysis was performed using 1-way analysis of variance (ANOVA) and post hoc Tukey-Kramer **P<0.05. […] FIG. 6G is a histogram showing the inhibition of the JAK/STAT pathway.\nSingle-cell RNA-sequencing was performed on these platinum-resistant patient samples, using the growth in low attachment (GILA) assay (Rotem et al., 2015 Proc. Natl. Acad. Sci. U.S.A, 112:5708-5713; B. Izar and A. Rotem, 2016 Curr. Protoc. Mol. Biol., 116:28.8.1-28.8.12). […] In contrast, all spheroid cultures were resistant to carboplatin, cisplatin, olaparib and paclitaxel at a similar dose range, with the exception of cisplatin with an EC50 of ˜10 μM in patients DF3266 and DF3288."}, "[2]": {"system": "ex vivo patient-derived ovarian cancer spheroids", "assay": "Microscopic analysis of patient-derived spheroids/cells after drug treatment", "type": "cell-based", "protocol": "as §1, with “μM. FIG. 6C is a series of images of microscopic analysis of spheroids with different drug treatments to highlight the morphologic changes during therapy with drugs listed. Inhibition of JAK/STAT pathway disrupts ex vivo spheroid cultures.” for “μM.”"}, "[3]": {"system": "established ovarian cancer cell lines (OVCAR4, OVCAR8, OVASHO, TYKNU, Kuramachi)", "assay": "Spheroid formation in low adherent surface culture", "type": "cell-based", "protocol": "as §2, with “pathway. […]” for “pathway.”"}, "[4]": {"system": "PDX model DF20 malignant ascites", "assay": "PDX model DF20, IP injected cancer cells (malignant ascites), IP JSI-124 vs vehicle, BLI", "type": "in vivo, mice", "protocol": "(§3) FIG. 7A-FIG. 7E are a series of graphs and images that depict the impact of JAK/STAT-inhibition on spheroid formation in vivo and anti-tumor activity. […] Each of these were performed following intraperitoneal (IP) or subcutaneous (SC) injection of cancer cells followed by IP therapy with JSI-124 vs. vehicle. Each group includes 5 mice. The inverted triangle indicates the time=0 of cancer cell injection. […] Mice were injected IP with tumor cells and one week later started treatment for a total 14 days. Each group includes 5 mice. Y-axis indicates log of bioluminescence imaging (BLI) signal (log total flux in p/s). Values are given as mean of log BLI signal, error bars indicate standard deviation from the mean. ***p<0.0001 (two-sided t test comparing mean±STDEV at Day 15 of treatment). […] Each group includes 5 mice. Y-axis indicates log BLI signal (log total flux in p/s). Values are given as mean of log BLI signal, error bars indicate standard deviation from the mean. ***p<0.0001 (two-sided t test comparing mean±STDEV at Day 15 of treatment). […] Mice were injected SC with tumor cells and one week later started treatment for a total 14 days. Each group includes 5 mice. Y-axis indicates log BLI signal (log total flux in p/s). Values are given as mean of log BLI signal, error bars indicate standard deviation from the mean. ***p<0.0001 (two-sided t test comparing mean±STDEV at Day 15 of treatment). […] Each group includes 5 mice. Y-axis indicates log BLI signal (log total flux in p/s). Values are given as mean of log BLI signal, error bars indicate standard deviation from the mean. ***p<0.0001 (two-sided t test comparing mean±STDEV at Day 15 of treatment)."}, "PDX model DF20 SC tumors": {"system": "PDX model DF20 SC tumors", "assay": "PDX model DF20, SC injected cancer cells, IP JSI-124 vs vehicle, BLI", "type": "in vivo, mice", "protocol": "as §3\n(§4) A frequently used treatment modality for advanced ovarian cancer is the intraperitoneal administration of chemotherapy, such as cisplatin, which has local effects, but is also systemically reabsorbed to treat potential metastatic disease. […] Tumor growth was compared following IP JSI-124 treatment v. vehicle."}, "[5]": {"assay": "Adverse effects in JSI-124 treated PDX mice", "type": "in vivo", "details": "IP JSI-124 treated PDX mice", "text": "as §4"}, "[6]": {"details": "ascites allowed to form 3 weeks, then IP treatment 14 days"}, "[7]": {"details": "tumor cells IP, 7 days growth, then 14 days IP therapy"}, "[8]": {"details": "SC tumors established 3 weeks, then IP treatment 14 days"}, "[9]": {"details": "SC tumors established 7 days, then 14 days IP therapy"}}, "note": "Where two headings read alike, the source gives them in different places.", "data": [{"smiles": "CC(C)(O)/C=C/C(=O)[C@](C)(O)[C@H]1[C@@H](O)C[C@@]2(C)[C@@H]3CC=C4[C@H](C=C(O)C(=O)C4(C)C)[C@]3(C)C(=O)C[C@]12C", "note": "[JSI-124, cucurbitacin I]", "values": [{"measurement": "Viability (CellTiterGlo), cell killing", "setting": "OVACR8", "value": "most effective compound leading to cell killing"}, {"measurement": "Emax", "setting": "[1]; Homo sapiens", "value": "≤ 99", "unit": "%"}, {"measurement": "EC50", "setting": "[1]; Homo sapiens, read-out: EC50 (viability, luminescence relative to DMSO), patient DF3266", "value": "~10", "unit": "nM"}, {"measurement": "EC50", "setting": "[1]; Homo sapiens, read-out: EC50 (viability, luminescence relative to DMSO), patient DF3291", "value": "~100", "unit": "nM"}, {"measurement": "EC50 values, single-agent cytotoxic activity", "setting": "[1]; all tested models (DF3266, DF3288, DF3291)", "value": "nanomolar ranges"}, {"measurement": "Morphology of ex-vivo patient-derived ovarian cells after treatment", "setting": "[2]; FIG. 36", "value": "massive elimination of tumor cells"}, {"measurement": "Spheroid morphology / integrity", "setting": "[2]; platinum-resistant ex vivo spheroids", "value": "disintegration of the solid 3D spheroid structure"}, {"measurement": "Number of spheroids vs DMSO control", "setting": "[3]; Kuramachi", "value": "significantly reduced the number of spheroids"}, {"measurement": "Formation of spheroids vs DMSO control", "setting": "[3]; OVCAR4, OVCAR8, OVASHO, TYKNU", "value": "completely abrogated the formation of spheroids"}, {"measurement": "BLI signal of established malignant ascites", "setting": "[4]; [6]", "value": "significant reduction in BLI signal of malignant ascites"}, {"measurement": "mean day 15 log BLI signal±standard deviation", "setting": "[4]; [6]", "value": "1.29×10^9±6×10^8 p/s"}, {"measurement": "Development of malignant ascites", "setting": "[4]; [7]", "value": "completely abrogated development of malignant ascites"}, {"measurement": "mean day 15 log BLI signal±standard deviation", "setting": "[4]; [7]", "value": "1.47×10^8±6.5×10^7 p/s"}, {"measurement": "Established SC tumors", "setting": "PDX model DF20 SC tumors; [8]", "value": "significant and near complete elimination of SC tumors"}, {"measurement": "mean day 15 log BLI signal±standard deviation", "setting": "PDX model DF20 SC tumors; [8]", "value": "8.52×10^8±3.1×10^8 p/s"}, {"measurement": "Growth of SC tumors", "setting": "PDX model DF20 SC tumors; [9]", "value": "significantly inhibit development of tumors growth of SC tumors"}, {"measurement": "mean day 15 log BLI signal±standard deviation", "setting": "PDX model DF20 SC tumors; [9]", "value": "5.55×10^8±2.2×10^8 p/s"}, {"measurement": "Adverse effect (body weight, ascites/edema)", "setting": "[5]", "value": "increased weight due to increased non-malignant ascites"}]}]}
